In test [1] the target is T1, recombinant human CI-M6PR protein (Homo sapiens, UniProt P11717).
T1 construct: purchased R&D 6418-GR-050
Description: Human CI-M6PR binding assay (ELISA). Particulars: for EC50: antibody conjugate; for binding affinity for M6PR, rank among the conjugates tested: matuzumab conjugates, ELISA, FIGS. 19A-19F. As for the experimental part:
Nunc black solid bottom MaxiSorp plates were allowed to incubate overnight at 4° C. coated with […] of recombinant human CI-M6PR protein (R&D, 6418-GR-050) in 50 μL PBS. The next day, coating was decanted and plates were washed 3× with PBS. Wells were blocked with 350 μL of 3% BSA-PBS for 1 hour at room temperature. […] 50 μL of diluted conjugates were added to the plate and allowed to incubate at room temperature for 2 hours. After incubation, solutions in plate were decanted and washed with 350 μL of 0.05% PBS-Tween20 three times, drying the plate each wash on a clean paper towel. 50 μL of peroxidase AffiniPure Mouse Anti-Human IgG (Jackson Immuno, 209-035-088) diluted in 3% BSA-PBS to […] was added to the plate and allowed to incubate for 1 hour at room temperature in the dark. After incubation, solutions in plate were decanted and washed with 350 μL of 0.05% PBS-Tween20 3 times, drying the plate each wash on a clean paper towel. […] 50 μL of QuantaBlu solution was added to wells and allowed to incubate for 5-10 minutes at room temperature. After incubation, plates were read on a Perkin Elmer EnVision using photometric 340 and Umbelliferone 460 filter sets for excitation and emission, respectively. Data analysis and non-linear curve-fitting was performed using GraphPad Prism.

Test [2] relates to Hep G2 cells. Description: Conjugate-mediated uptake of IgG2a into HepG2 cells. It is filed as cell-based, human. Particulars: one hour incubation, FIG. 25; average loading (816), DAR4 (817), DAR4 (520). As for the experimental part:
The uptake of antibody conjugates of exemplary M6PR or ASGPR binding compounds was assessed in Hep G2 cells, using a method similar to that described in Example 79.

The test system of test [3] is Jurkat cells. Kind of test: Conjugate-mediated uptake of IgG2a-Alexa488 into Jurkat cells (flow cytometry). It is filed as cell-based. Particulars: one hour incubation, FIG. 24. As for the experimental part: The anti-IgG2a conjugates were bound to IgG2a-Alexa488, as follows: equal molar ratios of anti-IgG2a and IgG2a-Alexa488 were added in tissue culture media for 30 minutes at room temperature. The resulting anti-IgG2a:IgG2a antibody-Alexa488 compositions were added to Jurkat cells (100 k cells/50 ul per well, n=2), and Alexa488 fluorescence levels were measured (via Alexa488 measurement) at 1 hour and 24 hours by flow cytometry. Because Alexa488 accumulates in cells, this presents a way to measure total intracellular uptake by cells over time.

[4] abbreviates: average loading DAR 9, FIG. 23, read-out: EC50 (nM) in M6PR binding assay.
Setting [5] is: average loading DAR 9.5, FIG. 23, read-out: EC50 (nM) in M6PR binding assay.

Read-outs that look alike come from different tables or passages of the source.

In the case of `O=C(CCCCCc1cn(CCOCCOCCOCCOCCC(=O)Oc2c(F)c(F)c(F)c(F)c2F)nn1)Nc1ccc(O[C@H]2O[C@H](CCP(=O)(O)O)[C@@H](O)[C@H](O)[C@@H]2O)cc1` [513 (I-39)], the EC50 in test [1] (setting [4]) was 0.186 nM. Take `O=C(CCOCCn1cc(CCCCNC(=S)Nc2ccc(O[C@H]3O[C@H](CCP(=O)(O)O)[C@@H](O)[C@H](O)[C@@H]3O)cc2)nn1)Oc1c(F)c(F)c(F)c(F)c1F` [519 (I-47)]: the 50% effective concentration (EC50) in test [1] (setting [5]) came out at 0.266 nM. Consider `O=C(CCOCCOCCOCCOCCn1cc(CCCCNC(=S)Nc2ccc(O[C@H]3O[C@H](CCP(=O)(O)O)[C@@H](O)[C@H](O)[C@@H]3O)cc2)nn1)Oc1c(F)c(F)c(F)c(F)c1F` [520 (I-7)], for which the half-maximal effective concentration (EC50) worked out at 0.412 nM in test [1] (additional M6PR binding assays, average loading DAR 4, read-out: EC50 (nM) in M6PR binding assay); 2.6 nM in test [1] (average loading DAR 2, FIG. 23, read-out: EC50 (nM) in M6PR binding assay); 0.221 nM in test [1] (average loading DAR 4, FIG. 23, read-out: EC50 (nM) in M6PR binding assay); 0.217 nM in test [1] (setting [4]). In test [2], the “uptake into HepG2 cells (cell fluorescence versus conjugate concentration)” value was “comparable HepG2 cellular uptake”. `O=C(CCOCCn1cc(COCCOCCOCCNC(=S)Nc2ccc(O[C@H]3O[C@H](CCP(=O)(O)O)[C@@H](O)[C@H](O)[C@@H]3O)cc2)nn1)Oc1c(F)c(F)c(F)c(F)c1F` [522 (I-49)]: the EC50 in test [1] (average loading DAR 11, FIG. 23, read-out: EC50 (nM) in M6PR binding assay) was 0.227 nM. Regarding `O=C(CCOCCOCCOCCOCCOCCOCCOCCOCCn1cc(CCCCNC(=S)Nc2ccc(O[C@H]3O[C@H](CCP(=O)(O)O)[C@@H](O)[C@H](O)[C@@H]3O)cc2)nn1)Oc1c(F)c(F)c(F)c(F)c1F` [526 (I-48)], in test [1] (average loading DAR 10, FIG. 23, read-out: EC50 (nM) in M6PR binding assay), the EC50 is 0.186 nM.

As for `C[C@H](NC(=O)CCCn1cc(CCCCNC(=S)Nc2ccc(O[C@H]3O[C@H](CCP(=O)(O)O)[C@@H](O)[C@H](O)[C@@H]3O)cc2)nn1)C(=O)N[C@@H](C)C(=O)N[C@@H](C)C(=O)NCCOCCOCCOCCOCCC(=O)Oc1c(F)c(F)c(F)c(F)c1F` [528 (I-51)], the EC50 amounted to 4.44 nM in test [1] (EC50 (nM) in M6PR binding assay, additional M6PR binding assays, average loading DAR 2); 0.301 nM in test [1] (EC50 (nM) in M6PR binding assay, additional M6PR binding assays, average loading DAR 8); 0.199 nM in test [1] (EC50 (nM) in M6PR binding assay, average loading DAR 9.5, FIG. 23). Moreover, the “uptake into Jurkat cells, average loading DAR9 versus lower average loading DAR2” value in test [3] is listed as “greater uptake”. For the molecule `O=C(NCCCCc1cn(CCOCCOCCOCCOCCC(=O)Oc2c(F)c(F)c(F)c(F)c2F)nn1)Nc1ccc(O[C@H]2O[C@H](CCP(=O)(O)O)[C@@H](O)[C@H](O)[C@@H]2O)cc1` [529 (I-38)], the EC50 in test [1] (setting [5]) was 0.194 nM. As to `O=C(CCOCCOCCOCCOCCn1cc(CCCCNC(=S)Nc2ccc(O[C@H]3O[C@H](CC(C(=O)O)C(=O)O)[C@@H](O)[C@H](O)[C@@H]3O)cc2)nn1)Oc1c(F)c(F)c(F)c(F)c1F` [537 (I-66)], the EC50 in test [1] (additional M6PR binding assays, average loading DAR 8, read-out: EC50 (nM) in M6PR binding assay) came to 2.31 nM; in test [1] (setting [4]) it was 3.36 nM. Regarding `O=C(CCOCCOCCOCCN(CCOCCOCCOCCn1cc(CCCCNC(=S)Nc2ccc(O[C@H]3O[C@H](CCP(=O)(O)O)[C@@H](O)[C@H](O)[C@@H]3O)cc2)nn1)CCOCCOCCOCCn1cc(CCCCNC(=S)Nc2ccc(O[C@H]3O[C@H](CCP(=O)(O)O)[C@@H](O)[C@H](O)[C@@H]3O)cc2)nn1)NCCN1C(=O)C=CC1=O` [706 (I-41)], in test [1] (additional M6PR binding assays, maleimide-Cys conjugation, read-out: EC50 (nM) in M6PR binding assay), the EC50 is 0.271 nM. As for `O=C(CCCn1cc(CCCCNC(=S)Nc2ccc(O[C@H]3O[C@H](CCP(=O)(O)O)[C@@H](O)[C@H](O)[C@@H]3O)cc2)nn1)N[C@@H](CCCCn1cc(CCCCNC(=S)Nc2ccc(O[C@H]3O[C@H](CCP(=O)(O)O)[C@@H](O)[C@H](O)[C@@H]3O)cc2)nn1)C(=O)N[C@@H](CCCCn1cc(CCCCNC(=S)Nc2ccc(O[C@H]3O[C@H](CCP(=O)(O)O)[C@@H](O)[C@H](O)[C@@H]3O)cc2)nn1)C(=O)N[C@@H](CCCCn1cc(CCCCNC(=S)Nc2ccc(O[C@H]3O[C@H](CCP(=O)(O)O)[C@@H](O)[C@H](O)[C@@H]3O)cc2)nn1)C(=O)NCCOCCOCCOCCOCCC(=O)Oc1c(F)c(F)c(F)c(F)c1F` [728 (I-52)], the EC50 in test [1] (additional M6PR binding assays, average loading DAR 6, read-out: EC50 (nM) in M6PR binding assay) was found to be 0.28 nM. For `CC(=O)N[C@H]1[C@H](OCCCCC(=O)NCCCNC(=O)CCOCC(COCCC(=O)NCCCNC(=O)CCCCO[C@@H]2O[C@H](CO)[C@H](O)[C@H](O)[C@H]2NC(C)=O)(COCCC(=O)NCCCNC(=O)CCCCO[C@@H]2O[C@H](CO)[C@H](O)[C@H](O)[C@H]2NC(C)=O)NC(=O)CCCCCCCCCCC(=O)Oc2c(F)c(F)c(F)c(F)c2F)O[C@H](CO)[C@H](O)[C@@H]1O` [816 (ASGPR compound I-124)], the “uptake into HepG2 cells (cell fluorescence versus conjugate concentration)” value in test [2] is given as “comparable HepG2 cellular uptake”. Regarding `CC(=O)N[C@H]1[C@H](OCCCCC(=O)NCCCNC(=O)CCOCC(COCCC(=O)NCCCNC(=O)CCCCO[C@@H]2O[C@H](CO)[C@H](O)[C@H](O)[C@H]2NC(C)=O)(COCCC(=O)NCCCNC(=O)CCCCO[C@@H]2O[C@H](CO)[C@H](O)[C@H](O)[C@H]2NC(C)=O)NC(=O)CCCCCCCCCCCN2C(=O)C=CC2=O)O[C@H](CO)[C@H](O)[C@@H]1O` [817 (ASGPR compound I-123), N-[1,3-bis(2-{[3-(5-{[(2R,3R,4R,5R,6R)-3-acetamido-4,5-dihydroxy-6-(hydroxymethyl)oxanyl]oxy}pentanamido)propyl]carbamoyl}ethoxy)-2-[(2-{[3-(5-{[(2R,3R,4R,5R,6R)acetamido-4,5-dihydroxy-6-(hydroxymethyl)oxanyl]oxy}pentanamido)propyl]carbamoyl}ethoxy)methyl]propan-2-yl]-12-(2,5-dioxo-2,5-dihydro-1H-pyrrol-1-yl)dodecanamide], the “uptake into HepG2 cells (cell fluorescence versus conjugate concentration)” value in test [2] is recorded as “comparable HepG2 cellular uptake”.

B1: Compound I-7 (d8): "matuzumab conjugates (matuzumab-Compound I-7(d4), matuzumab-Compound I-7(d8) ..." (conjugate)
heavy: QVQLVQSGAEVKKPGASVKVSCKASGYTFTSHWMHWVRQAPGQGLEWIGEFNPSNGRTNYNEKFKSKATMTVDTSTNTAYMELSSLRSEDTAVYYCASRDYDYAGRYFDYWGQGTLVTVSSASTKGPSVFPLAPSSKSTSGGTAALGCLVKDYFPEPVTVSWNSGALTSGVHTFPAVLQSSGLYSLSSVVTVPSSSLGTQTYICNVNHKPSNTKVDKKVEPKS
light: DIQMTQSPSSLSASVGDRVTITCSASSSVTYMYWYQQKPGKAPKLLIYDTSNLASGVPSRFSGSGSGTDYTFTISSLQPEDIATYYCQQWSSHIFTFGQGTKVEIKRTVAAPSVFIFPPSDEQLKSGTASVVCLLNNFYPREAKVQWKVDNALQSGNSQESVTEQDSKDSTYSLSSTLTLSKADYEKHKVYACEVTHQGLSSPVTKSFNRGE
modifications: left off: a dimerising Fc or GST
In the case of B1, in test [1], the “binding affinity for M6PR, rank among the conjugates tested” value is given as “highest”.

B2: Compound I-11 (d4): "matuzumab conjugates (... matuzumab-Compound I-11(d4) ..." (conjugate)
heavy: QVQLVQSGAEVKKPGASVKVSCKASGYTFTSHWMHWVRQAPGQGLEWIGEFNPSNGRTNYNEKFKSKATMTVDTSTNTAYMELSSLRSEDTAVYYCASRDYDYAGRYFDYWGQGTLVTVSSASTKGPSVFPLAPSSKSTSGGTAALGCLVKDYFPEPVTVSWNSGALTSGVHTFPAVLQSSGLYSLSSVVTVPSSSLGTQTYICNVNHKPSNTKVDKKVEPKS
light: DIQMTQSPSSLSASVGDRVTITCSASSSVTYMYWYQQKPGKAPKLLIYDTSNLASGVPSRFSGSGSGTDYTFTISSLQPEDIATYYCQQWSSHIFTFGQGTKVEIKRTVAAPSVFIFPPSDEQLKSGTASVVCLLNNFYPREAKVQWKVDNALQSGNSQESVTEQDSKDSTYSLSSTLTLSKADYEKHKVYACEVTHQGLSSPVTKSFNRGE
modifications: left off: a dimerising Fc or GST
For B2, in test [1], the “binding affinity for M6PR, rank among the conjugates tested” value is listed as “lowest”.

These data come from US20230158155A1, “Cell Surface Receptor Binding Compounds and Conjugates” (priority 2020, published 2023).
